# Assay results as given in US10259844B2, “Endometriosis cell targeting peptide and uses thereof” (Sanford-Burnham Medical Research Institute, priority 2005, dated 2019).
# Where no end group is shown, it is not given here. The star is where a group is joined. FITC = O=C1OC2(c3ccc(O)cc3Oc3cc(O)ccc32)c2ccc(NC(=S)*)cc21
# What was measured:
# Ishikawa cells = assay: Fluorescence microscopy of overlay on Ishikawa cells; assay type: cell-based, human
# Method: Twenty μl of C16-z13 peptide (10 mM in chloroform:methanol 2:1) was mixed with 20 μl phosphatidylcholine (100 mM in chloroform) and 10 μl cholesterol (100 mM in chloroform) in a round bottom flask and evaporated in a rotary evaporator. The sample was dried in a vacuum, dissolved in 500 μl 0.3M citric acid, and frozen and thawed three times, followed by sonication for 10 min. Five hundred μl of 0.2M Na2CO3 and 20 μl of 1 μM Qdot605 streptavidin was added and heated at 60° C. for 1 hour. After adding 1 ml of 20 mM Hepes buffer, pH7.2, the liposome solution was centrifuged at 90,000 rpm for 30 min at 4° C. and the pellet dissolved in PBS.
# (§1) Ishikawa cells and A431 cells were grown on glass coverslips in 3.5 cm tissue culture plates. Each phage clone including z13 was added to these cells, incubated at 4° C. for 15 min, washed with cold PBS, and fixed with 1% paraformaldehyde (PFA) in PBS. Phage was detected using rabbit anti-T7 antibody and FITC-conjugated goat anti-rabbit IgG antibody. After washing three times with PBS, cells were fixed with 1% paraformaldehyde in PBS and inspected under a Zeiss Axioplan fluorescence microscope. Ishikawa cells grown on glass coverslips were incubated in medium containing FITC-z13 peptide (1 μg/ml) at 37° C. for 15 min. After washing with PBS, cells were fixed with 1% PFA in PBS, and inspected under the fluorescence microscope. Qdot-encapsulated and C16-z13 peptide coated liposomes were prepared as described above. Ishikawa cells were incubated with these liposomes at 37° C. for 15 min, washed with PBS, fixed with 1% PFA, and inspected under the fluorescence microscope. Qdot605-conjugated peptide, Qdot-cys-z13, or control peptide, Qdot-cys-m2, was added to the culture at 100 nM and left at 37° C. for 15 min.
# [1] = tested on: human endometrial tissues grafted onto the peritoneal wall; assay: In vivo targeting in SCID mouse peritoneal endometriosis model; details: intraperitoneal injection, 30 min
# Method: For in vivo targeting, Qdot-cys-z13 or Qdot-cys-m2 (200 nmoles in 200 μl PBS/mouse) was injected into the peritoneum of a SCID mouse that had received intraperitoneal grafts of human endometrial tissues. The abdomen of the mouse was massaged gently to distribute injected material to the entire peritoneal cavity. After 30 min, mice were sacrificed, and the endometrial graft and organs facing the peritoneum were isolated. Tissues were washed in PBS, embedded in O. C. T. compound (Sakura Finetechnical, Tokyo, Japan) and cryosections were made. Sections were fixed with cold methanol, covered with Vecta-shield with DAPI (Vector), and inspected with a fluorescence microscope.
# Immunohistochemistry for the progesterone receptor (PR) was performed as follows: Frozen mouse tissue sections prepared from Qdot-cys-z13 injected mice, Qdot-cys-m2 injected mice, and control mice without Qdot injection were fixed in cold methanol for 15 min. Tissue sections were blocked with avidin (5 ng/ml) in PBS at room temperature for 15 min, followed by incubation with 10% goat serum containing biotin (5 μg/ml) for 1 hour. The tissue sections were then applied to immunohistochemistry with a diluted (1:100) anti-PR antibody (DAKO, Carpinteria, Calif.) at 4° C. for 20 hours. After washing with PBS, sections were incubated with biotinylated anti-rabbit IgG antibody (Zymed) and by streptavidin conjugated Qdot565. […]
# A431 cells = assay: Fluorescence microscopy of overlay on A431 cells; assay type: cell-based, human
# Method: as §1
substance,measurement,setting,value
Qdot-cys-m2: Qdot605 conjugate of the control peptide cys-m2 CRGMSDTTAL (also: Qdot605 conjugate),fluorescence of Qdot-conjugated peptide on Ishikawa cells,"Ishikawa cells; 100 nM, 37° C. 15 min",did not show fluorescence signals
same,fluorescence at the surface epithelia of endometriosis lesions,[1],did not show fluorescence
same,fluorescence in other mouse tissues facing the peritoneum,[1],did not show fluorescence
VRRADNRPG [z13 peptide],binding to Ishikawa cells regardless of modification at the amino terminus,"Ishikawa cells; conclusion from FITC, C16 liposome and Qdot conjugates",efficiently binds
FITC-z13: synthetic fluorescence-tagged z13 peptide whose amino-terminus was conjugated ({FITC}-VRRADNRPG),binding of fluorescent peptide to Ishikawa cells,"Ishikawa cells; 1 μg/ml, 37° C. 15 min",bound
same,fluorescence of fluorescent peptide on A431 cells,A431 cells,did not show fluorescence
